# Assay results as given in patent publication US7601716B2, “Pyridopyrazines and derivatives thereof as ALK and c-Met inhibitors” (Cephalon, Inc., priority 2006, dated 2009).
# Target: baculovirus-expressed ALK (Homo sapiens, UniProt Q9UM73)
# Assay: ALK Kinase Assay (ELISA/TRF, PLC-γ substrate); further: 1 µM ATP (Km level)
# Type: biochemical
# Conditions: read-out: ALK Kinase Inhibition (IC50)
# Experimental: Example compounds were tested for their ability to inhibit the kinase activity of baculovirus-expressed ALK using a modification of the ELISA protocol reported for trkA in Angeles, T. S. et al., Anal. Biochem. 1996, 236, 49-55, which is incorporated herein by reference in its entirety. Phosphorylation of the substrate, phospholipase C-gamma (PLC-γ) generated as a fusion protein with glutathione S-transferase (GST) as reported in Rotin, D. et al., EMBO J. 1992, 11, 559-567, which is incorporated herein by reference in its entirety, was detected with a europium-labeled anti-phosphotyrosine antibody and measured by time-resolved fluorescence (TRF). Briefly, each 96-well plate was coated with 100 μL/well of 10 μg/mL substrate (phospholipase C-γ) in Tris-buffered saline (TBS). […] The reaction was initiated by adding enzyme (30 ng/ml ALK) and was allowed to proceed at 37° C. for 15 minutes. Detection of the phosphorylated product was performed by adding 100 μl/well of Eu-N1 labeled PT66 antibody (Perkin Elmer # AD0041). Incubation at 37° C. then proceeded for one (1) hour, followed by addition of 100 μL enhancement solution (Wallac #1244-105). The plate was gently agitated and after thirty minutes, the fluorescence of the resulting solution was measured using the EnVision 2100 (or 2102) multilabel plate reader (Perkin Elmer).
# Data analysis was performed using ActivityBase (IDBS, Guilford, UK). IC50 values were calculated by plotting percent inhibition versus log10 of the concentration of compound and fitting to the nonlinear regression sigmoidal dose-response (variable slope) equation in XLFit (IDBS, Guilford, UK).
# Chain of baculovirus-expressed ALK (Q9UM73 19-1620): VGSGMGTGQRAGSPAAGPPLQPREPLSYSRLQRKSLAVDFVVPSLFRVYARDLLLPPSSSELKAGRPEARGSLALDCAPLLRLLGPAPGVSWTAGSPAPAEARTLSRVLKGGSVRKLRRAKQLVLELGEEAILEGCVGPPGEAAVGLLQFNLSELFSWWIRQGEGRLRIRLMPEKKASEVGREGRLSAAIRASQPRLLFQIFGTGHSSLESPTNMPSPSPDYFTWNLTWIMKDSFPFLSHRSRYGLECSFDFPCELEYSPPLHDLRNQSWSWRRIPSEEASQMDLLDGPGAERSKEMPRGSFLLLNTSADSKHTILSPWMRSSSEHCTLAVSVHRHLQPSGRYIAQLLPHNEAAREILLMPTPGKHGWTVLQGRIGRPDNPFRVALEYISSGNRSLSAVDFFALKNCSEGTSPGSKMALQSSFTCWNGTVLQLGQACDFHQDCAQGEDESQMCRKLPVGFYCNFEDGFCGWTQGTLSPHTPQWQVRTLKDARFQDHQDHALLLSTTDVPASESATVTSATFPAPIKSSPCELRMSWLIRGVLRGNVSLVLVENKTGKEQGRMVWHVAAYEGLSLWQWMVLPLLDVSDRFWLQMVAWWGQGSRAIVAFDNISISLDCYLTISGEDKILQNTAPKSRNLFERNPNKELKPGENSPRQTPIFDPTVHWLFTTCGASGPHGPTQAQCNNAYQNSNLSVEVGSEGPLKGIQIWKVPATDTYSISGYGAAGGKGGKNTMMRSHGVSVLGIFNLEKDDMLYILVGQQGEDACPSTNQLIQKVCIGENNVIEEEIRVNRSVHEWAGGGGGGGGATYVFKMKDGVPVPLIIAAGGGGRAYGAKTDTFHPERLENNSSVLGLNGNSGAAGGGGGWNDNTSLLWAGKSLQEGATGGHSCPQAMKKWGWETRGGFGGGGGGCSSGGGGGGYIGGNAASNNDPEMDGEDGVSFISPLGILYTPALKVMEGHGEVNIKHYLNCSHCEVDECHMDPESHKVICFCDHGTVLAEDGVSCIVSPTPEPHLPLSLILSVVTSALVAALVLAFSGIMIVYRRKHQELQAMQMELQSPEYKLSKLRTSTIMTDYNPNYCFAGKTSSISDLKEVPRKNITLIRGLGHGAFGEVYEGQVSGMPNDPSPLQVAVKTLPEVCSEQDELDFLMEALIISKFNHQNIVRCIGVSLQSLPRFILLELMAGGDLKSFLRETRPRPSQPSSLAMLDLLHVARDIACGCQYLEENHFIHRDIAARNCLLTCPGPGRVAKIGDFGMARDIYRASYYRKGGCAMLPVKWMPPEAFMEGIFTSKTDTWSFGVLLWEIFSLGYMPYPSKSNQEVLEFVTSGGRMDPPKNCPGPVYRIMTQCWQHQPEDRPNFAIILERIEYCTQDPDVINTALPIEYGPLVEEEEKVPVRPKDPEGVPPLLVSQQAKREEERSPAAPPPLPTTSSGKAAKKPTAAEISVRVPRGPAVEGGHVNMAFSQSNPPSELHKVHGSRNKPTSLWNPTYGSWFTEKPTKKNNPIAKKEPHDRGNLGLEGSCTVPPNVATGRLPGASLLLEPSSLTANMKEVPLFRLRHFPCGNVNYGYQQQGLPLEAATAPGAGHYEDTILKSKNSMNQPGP
row,IC50 [nM],SMILES
1,100 to 1000,"O=C(c1ccc(-c2cnc3c(c2)N(Cc2cc(Cl)ccc2C(F)(F)F)CCN3)cc1)N1CCN(c2ccc(Cl)c(Cl)c2)CC1 [Example 379, (4-{1-[5-Chloro-2-(trifluoromethyl)benzyl]-1,2,3,4-tetrahydropyrido[2,3-b]pyrazin-7-yl}phenyl)-[4-(3,4-dichlorophenyl)piperazin-1-yl]methanone]"
2,100 to 1000,"COc1cccc(CNC(=O)c2ccc(-c3cnc4c(c3)N(Cc3cc(Cl)ccc3C(F)(F)F)CCN4)cc2)c1 [Example 418, 4-{1-[5-Chloro-2-(trifluoromethyl)benzyl]-1,2,3,4-tetrahydropyrido[2,3-b]pyrazin-7-yl}-N-(3-methoxybenzyl)benzamide]"
3,100 to 1000,"O=C(c1cccc(-c2cnc3c(c2)N(Cc2cc(Cl)ccc2C(F)(F)F)CCN3)c1)N1CCN(c2ccccc2Cl)CC1 [Example 360, [4-(2-Chlorophenyl)piperazin-1-yl]-(3-{1-[5-chloro-2-(trifluoromethyl)benzyl]-1,2,3,4-tetrahydropyrido[2,3-b]pyrazin-7-yl}phenyl)methanone]"
4,< 100,"CN1CCC(NC(=O)c2ccc(-c3cnc4c(c3)N(Cc3cc(Cl)ccc3C(F)(F)F)CCN4)cc2)CC1 [Example 393, 4-{1-[5-Chloro-2-(trifluoromethyl)benzyl]-1,2,3,4-tetrahydropyrido[2,3-b]pyrazin-7-yl}-N-(1-methylpiperidin-4-yl)benzamide]"
5,100 to 1000,"O=C(c1cccc(-c2cnc3c(c2)N(Cc2cc(Cl)ccc2C(F)(F)F)CCN3)c1)N1CCN(c2cccc(Cl)c2)CC1 [Example 357, [4-(3-Chlorophenyl)piperazin-1-yl]-(3-{1-[5-chloro-2-(trifluoromethyl)benzyl]-1,2,3,4-tetrahydropyrido[2,3-b]pyrazin-7-yl}phenyl)methanone]"
6,100 to 1000,"O=C(c1ccc(-c2cnc3c(c2)N(Cc2cc(Cl)ccc2C(F)(F)F)CCN3)cc1)N1CCN(c2cccc(C(F)(F)F)c2)CC1 [Example 374, (4-{1-[5-Chloro-2-(trifluoromethyl)benzyl]-1,2,3,4-tetrahydropyrido[2,3-b]pyrazin-7-yl}phenyl)-{4-[3-(trifluoromethyl)phenyl]piperazin-1-yl}methanone]"
7,100 to 1000,"O=C(NCc1csc(-c2ccccc2)n1)c1ccc(-c2cnc3c(c2)N(Cc2cc(Cl)ccc2C(F)(F)F)CCN3)cc1 [Example 407, 4-{1-[5-Chloro-2-(trifluoromethyl)benzyl]-1,2,3,4-tetrahydropyrido[2,3-b]pyrazin-7-yl}-N-(2-phenylthiazol-4-ylmethyl)benzamide]"
8,100 to 1000,"O=C(c1ccc(-c2cnc3c(c2)N(Cc2cc(Cl)ccc2C(F)(F)F)CCN3)cc1)N1CCC(n2c(=O)[nH]c3ccccc32)CC1 [Example 372, 1-[1-(4-{1-[5-Chloro-2-(trifluoromethyl)benzyl]-1,2,3,4-tetrahydropyrido[2,3-b]pyrazin-7-yl}benzoyl)piperidin-4-yl]-1,3-dihydrobenzoimidazol-2-one]"
9,100 to 1000,"O=C(NCCOc1ccccc1)c1cccc(-c2cnc3c(c2)N(Cc2cc(Cl)ccc2C(F)(F)F)CCN3)c1 [Example 355, 3-{1-[5-Chloro-2-(trifluoromethyl)benzyl]-1,2,3,4-tetrahydropyrido[2,3-b]pyrazin-7-yl}-N-(2-phenoxyethyl)benzamide]"
10,100 to 1000,"COc1ccccc1N1CCN(C(=O)c2ccc(-c3cnc4c(c3)N(Cc3cc(Cl)ccc3C(F)(F)F)CCN4)cc2)CC1 [Example 373, (4-{1-[5-Chloro-2-(trifluoromethyl)benzyl]-1,2,3,4-tetrahydropyrido[2,3-b]pyrazin-7-yl}phenyl)-[4-(2-methoxyphenyl)piperazin-1-yl]methanone]"
11,100 to 1000,"COc1ccccc1CN(C)C(=O)c1cccc(-c2cnc3c(c2)N(Cc2cc(Cl)ccc2C(F)(F)F)CCN3)c1 [Example 367, 3-{1-[5-Chloro-2-(trifluoromethyl)benzyl]-1,2,3,4-tetrahydropyrido[2,3-b]pyrazin-7-yl}-N-(2-methoxybenzyl)-N-methylbenzamide]"
12,100 to 1000,"O=C(NCC(c1ccccc1)c1ccccc1)c1cccc(-c2cnc3c(c2)N(Cc2cc(Cl)ccc2C(F)(F)F)CCN3)c1 [Example 328, 3-{1-[5-Chloro-2-(trifluoromethyl)benzyl]-1,2,3,4-tetrahydropyrido[2,3-b]pyrazin-7-yl}-N-(2,2-diphenylethyl)benzamide]"
13,100 to 1000,"O=C(NCc1ccncc1)c1ccc(-c2cnc3c(c2)N(Cc2cc(Cl)ccc2C(F)(F)F)CCN3)cc1 [Example 400, 4-{1-[5-Chloro-2-(trifluoromethyl)benzyl]-1,2,3,4-tetrahydropyrido[2,3-b]pyrazin-7-yl}-N-pyridin-4-ylmethylbenzamide]"
14,1000 to 10000,"O=C(NCc1ccc(OC(F)(F)F)cc1)c1cccc(-c2cnc3c(c2)N(Cc2cc(Cl)ccc2C(F)(F)F)CCN3)c1 [Example 331, 3-{1-[5-Chloro-2-(trifluoromethyl)benzyl]-1,2,3,4-tetrahydropyrido[2,3-b]pyrazin-7-yl}-N-[4-(trifluoromethoxy)benzyl]benzamide]"
15,100 to 1000,"O=C(c1cccc(-c2cnc3c(c2)N(Cc2cc(Cl)ccc2C(F)(F)F)CCN3)c1)N1CCN(c2nccc3occc23)CC1 [Example 324, (3-{1-[5-Chloro-2-(trifluoromethyl)benzyl]-1,2,3,4-tetrahydropyrido[2,3-b]pyrazin-7-yl}phenyl)-(4-furo[3,2-c]pyridin-4-ylpiperazin-1-yl)methanone]"
16,100 to 1000,"O=C(NCCc1ccccn1)c1ccc(-c2cnc3c(c2)N(Cc2cc(Cl)ccc2C(F)(F)F)CCN3)cc1 [Example 388, 4-{1-[5-Chloro-2-(trifluoromethyl)benzyl]-1,2,3,4-tetrahydropyrido[2,3-b]pyrazin-7-yl}-N-(2-pyridin-2-yl-ethyl)benzamide]"
17,100 to 1000,"COc1ccc(CNC(=O)c2ccc(-c3cnc4c(c3)N(Cc3cc(Cl)ccc3C(F)(F)F)CCN4)cc2)cc1 [Example 419, 4-{1-[5-Chloro-2-(trifluoromethyl)benzyl]-1,2,3,4-tetrahydropyrido[2,3-b]pyrazin-7-yl}-N-(4-methoxybenzyl)benzamide]"
18,100 to 1000,"CCOC(=O)N1CCC(NC(=O)c2cccc(-c3cnc4c(c3)N(Cc3cc(Cl)ccc3C(F)(F)F)CCN4)c2)CC1 [Example 326, 4-(3-{1-[5-Chloro-2-(trifluoromethyl)benzyl]-1,2,3,4-tetrahydropyrido[2,3-b]pyrazin-7-yl}benzoylamino)piperidine-1-carboxylic acid ethyl ester]"
19,1000 to 10000,"O=C(NC(c1ccccc1)c1ccccc1)c1ccc(-c2cnc3c(c2)N(Cc2cc(Cl)ccc2C(F)(F)F)CCN3)cc1 [Example 399, N-Benzhydryl-4-{1-[5-chloro-2-(trifluoromethyl)benzyl]-1,2,3,4-tetrahydropyrido[2,3-b]pyrazin-7-yl}benzamide]"
20,100 to 1000,"O=C(c1cccc(-c2cnc3c(c2)N(Cc2cc(Cl)ccc2C(F)(F)F)CCN3)c1)N1CCN(c2ncccn2)CC1 [Example 307, (3-{1-[5-Chloro-2-(trifluoromethyl)benzyl]-1,2,3,4-tetrahydropyrido[2,3-b]pyrazin-7-yl}phenyl)-(4-pyrimidin-2-ylpiperazin-1-yl)methanone]"
21,100 to 1000,"O=C(NCc1ccc(C(F)(F)F)cc1)c1ccc(-c2cnc3c(c2)N(Cc2cc(Cl)ccc2C(F)(F)F)CCN3)cc1 [Example 396, 4-{1-[5-Chloro-2-(trifluoromethyl)benzyl]-1,2,3,4-tetrahydropyrido[2,3-b]pyrazin-7-yl}-N-[4-(trifluoromethyl)benzyl]benzamide]"
22,100 to 1000,"O=C(c1ccc(-c2cnc3c(c2)N(Cc2cc(Cl)ccc2C(F)(F)F)CCN3)cc1)N1CCN(c2cccc(Cl)c2)CC1 [Example 422, [4-(3-Chlorophenyl)piperazin-1-yl]-(4-{1-[5-chloro-2-(trifluoromethyl)benzyl]-1,2,3,4-tetrahydropyrido[2,3-b]pyrazin-7-yl}phenyl)methanone]"
23,100 to 1000,"O=C(c1cccc(-c2cnc3c(c2)N(Cc2cc(Cl)ccc2C(F)(F)F)CCN3)c1)N1CCOCC1 [Example 341, (3-{1-[5-Chloro-2-(trifluoromethyl)benzyl]-1,2,3,4-tetrahydropyrido[2,3-b]pyrazin-7-yl}phenyl)morpholin-4-ylmethanone]"
24,100 to 1000,"O=C(NCc1cc(C(F)(F)F)cc(C(F)(F)F)c1)c1cccc(-c2cnc3c(c2)N(Cc2cc(Cl)ccc2C(F)(F)F)CCN3)c1 [Example 332, N-[3,5-Bis(trifluoromethyl)benzyl]-3-{1-[5-chloro-2-(trifluoromethyl)benzyl]-1,2,3,4-tetrahydropyrido[2,3-b]pyrazin-7-yl}benzamide]"
25,100 to 1000,"O=C(NCc1cccnc1)c1ccc(-c2cnc3c(c2)N(Cc2cc(Cl)ccc2C(F)(F)F)CCN3)cc1 [Example 401, 4-{1-[5-Chloro-2-(trifluoromethyl)benzyl]-1,2,3,4-tetrahydropyrido[2,3-b]pyrazin-7-yl}-N-pyridin-3-ylmethylbenzamide]"
26,100 to 1000,"O=C(c1cccc(-c2cnc3c(c2)N(Cc2cc(Cl)ccc2C(F)(F)F)CCN3)c1)N1CCC(Cc2ccccc2)CC1 [Example 316, (4-Benzylpiperidin-1-yl)-(3-{1-[5-Chloro-2-(trifluoromethyl)benzyl]-1,2,3,4-tetrahydropyrido[2,3-b]pyrazin-7-yl}phenyl)methanone]"
